# Experimental data taken from PubChem BioAssay (NCI).
#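 All cell lines were grown in 96-well plates and treated with compound for 48 hours. Definition used: TGI = concentration required for complete inhibition of growth.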
# Experiments:
# Test in all cases: DTP human tumour cell line panel, 48 h
# A549 NSCLC = test system: A549 NSCLC
# ACHN renal = test system: ACHN renal
# CAKI-1 renal = test system: CAKI-1 renal
# COLO 205 colon = test system: COLO 205 colon
# HCC-2998 colon = test system: HCC-2998 colon
# HCT-116 colon = test system: HCT-116 colon
# HS 578T breast = test system: HS 578T breast
# K-562 leukemia = test system: K-562 leukemia
# KM12 colon = test system: KM12 colon
# LOX IMVI melanoma = test system: LOX IMVI melanoma
# MDA-MB-435 = test system: MDA-MB-435
# MDA-N = test system: MDA-N
# NCI-H23 lung = test system: NCI-H23 lung
# OVCAR-5 ovarian = test system: OVCAR-5 ovarian
# PC-3 prostate = test system: PC-3 prostate
# RXF 393 renal = test system: RXF 393 renal
# SF-539 CNS = test system: SF-539 CNS
# SK-MEL-28 melanoma = test system: SK-MEL-28 melanoma
# SNB-19 CNS = test system: SNB-19 CNS
# UACC-257 melanoma = test system: UACC-257 melanoma
Compound,TGI (A549 NSCLC) [µM],TGI (ACHN renal) [µM],TGI (CAKI-1 renal) [µM],TGI (COLO 205 colon) [µM],TGI (HCC-2998 colon) [µM],TGI (HCT-116 colon) [µM],TGI (HS 578T breast) [µM],TGI (K-562 leukemia) [µM],TGI (KM12 colon) [µM],TGI (LOX IMVI melanoma) [µM],TGI (MDA-MB-435) [µM],TGI (MDA-N) [µM],TGI (NCI-H23 lung) [µM],TGI (OVCAR-5 ovarian) [µM],TGI (PC-3 prostate) [µM],TGI (RXF 393 renal) [µM],TGI (SF-539 CNS) [µM],TGI (SK-MEL-28 melanoma) [µM],TGI (SNB-19 CNS) [µM],TGI (UACC-257 melanoma) [µM]
CCOC(=O)C1C(=O)CC(C)(O)C(C(=O)OCC)C1c1ccc(OC)cc1 (stereo not drawn),> 100,> 100,> 100,> 100,> 100,> 100,> 100,> 100,> 100,> 100,> 100,> 100,> 100,> 100,> 100,> 100,> 100,> 100,> 100,> 100
CCCC[Si](CCCC)(CCCC)O[C@@H](/C=C/C(=O)OCC)[C@H](Cc1ccccc1)O[Si](CCCC)(CCCC)CCCC,> 100,> 100,> 100,> 100,> 100,> 100,> 100,> 100,> 100,> 100,> 100,> 100,> 100,> 100,> 100,> 100,> 100,–,> 100,> 100
COc1cc2c(cc1OC)C(=O)/C(=C/c1ccccc1)C2,> 100,> 100,> 100,> 100,> 100,> 100,> 100,> 65.6,> 100,> 100,> 100,> 100,> 100,> 100,> 100,> 100,> 100,> 100,> 100,> 100
O=C1/C(=C/c2cccc([N+](=O)[O-])c2)N=C(c2ccccc2)N1c1ccc2c(c1)Sc1cc(N3C(=O)/C(=C/c4cccc([N+](=O)[O-])c4)N=C3c3ccccc3)ccc1N2,> 100,> 100,54,> 100,> 100,> 100,> 100,96.7,> 100,74.1,34.5,35,92.4,35.8,52.8,62.2,–,> 100,40.2,37.5
Cc1ccc2nc(Cl)c(/C=N/N3C(=O)/C(=C/Cc4ccco4)N=C3c3ccccc3)cc2c1,> 93.5,> 100,> 100,> 100,75.8,39.3,> 86.2,> 100,> 93.6,> 69.3,5.29,39.6,> 84.5,> 100,> 100,> 100,88.4,> 100,> 90.9,71.8
COc1cc(C2c3cc4c(cc3OC(O)C2C)OCO4)cc(OC)c1O (stereo not drawn),> 100,> 100,> 100,45.8,49.5,38.3,46.4,> 100,> 100,> 100,5.22,5.06,> 100,> 100,> 100,> 43,30.6,> 91.6,> 46.4,> 100
O=C(CN1C(=O)c2ccccc2C1=O)OCC1CCCN2CCCCC12 (stereo not drawn),> 100,> 100,> 100,> 100,> 100,> 100,> 100,> 100,> 100,> 100,> 100,> 100,> 100,–,> 100,> 100,> 100,> 100,> 100,> 100
COc1ccc(N=C2C(=Nc3ccc(OC)cc3)N(c3ccccc3[N+](=O)[O-])C(=S)N2c2ccc(OC)cc2)cc1,> 100,> 100,> 100,30.8,> 100,> 100,> 100,> 100,> 100,–,> 100,> 100,> 100,> 100,> 100,> 100,> 100,> 100,> 100,–
CO/N=C/c1c(-c2ccc(Cl)cc2)c(/C=N/OC)n2c1sc1ccccc12,> 100,> 100,> 100,> 100,> 100,> 100,> 100,> 100,> 100,> 100,> 100,> 100,> 100,> 100,> 100,> 100,–,> 100,> 100,> 100
O=C1C(c2c(O)[nH]c3ccc(S(=O)(=O)N(CCO)CCO)cc23)=Nc2ccccc21,> 100,> 100,> 100,> 100,> 100,> 100,> 100,> 100,> 100,> 100,> 100,> 100,> 100,> 100,> 100,6.53,–,> 100,> 100,> 100
